# Like-named read-outs stand apart in the source and are kept apart here.
# What was measured:
# human cyclin B-CDK1 = human cyclin B-CDK1 (Homo sapiens, UniProt P06493); experiment: CDK1 HTRF kinase assay (Ki measurement); type: biochemical; conditions: ATP at 3x Km
# Procedure: (§1) To determine inhibition of Cdk4, Cdk2 and Cdk1 activity, kinase assays were conducted using FlashPlate™ assays (NEN™-Life Science Products). FlashPlate assays were performed using recombinant human cyclin B-CDK1, human cyclin E-CDK2 or human cyclin D1-CDK4 complexes. GST-cyclinE (GST-cycE), CDK2, GST-cyclinB (GST-cycB), CDK1, GST-CDK4 and cyclin D1 (cycD1) cDNA clones in baculovirus vectors were provided by Dr. W. Harper at the Baylor College of Medicine, Houston, Tex.
# (§2) Alternatively, inhibition activity may be measured using Ki. […] These were done in 96-well format and read in 384-well plate format. The assays were run at 3× their respective Kms for ATP.
# Twenty microliters were added to the wells of a 96-well plate. […] Blank wells without CDK4 were included. The plates were incubated at 37° C. for 30 minutes with shaking. […] After 30 minutes at 37° C., 15 μl/well of 3 nM Lance-Eu-W1024 labeled anti-rabbit IgG and 60 nM Allophycocyanin conjugated anti-His6 (PerkinElmer Life Sciences) in 25 mM Hepes, pH 7.0, 0.5 mg/ml BSA were added. Following a one hour incubation at 37 deg C., 35 μl of each well, in duplicate, were transferred to 384-well black plates. The plates were read using either ViewLux or Victor V readers (PerkinElmer Life Sciences) using an excitation wavelength of 340 nm and dual emission wavelengths of 615 nm and 665 nm. […] For ATP competitive inhibitors, the Ki values were calculated according to the following equation: Ki=IC50/(1+S/Km) where S refers to the substrate concentration and Km refers to the Michaelis-Menten constant.
# (§3) The CDK1 and CDK2 assays were similarly run except for small differences in reagent and protein concentrations:
# The compound and enzyme buffers for both assays contained 10 mM MgCl2. […] CDK1 at a reagent concentration of 0.15 ng/ul and CDK2 at a reagent concentration of 0.06 ng/ul were used.
# human cyclin D1-CDK4 = human cyclin D1-CDK4 (Homo sapiens, UniProt P11802); experiment: CDK4 HTRF kinase assay (Ki measurement); type: biochemical; conditions: ATP at 3x Km
# Sequence of human cyclin D1-CDK4 (P11802 whole entry): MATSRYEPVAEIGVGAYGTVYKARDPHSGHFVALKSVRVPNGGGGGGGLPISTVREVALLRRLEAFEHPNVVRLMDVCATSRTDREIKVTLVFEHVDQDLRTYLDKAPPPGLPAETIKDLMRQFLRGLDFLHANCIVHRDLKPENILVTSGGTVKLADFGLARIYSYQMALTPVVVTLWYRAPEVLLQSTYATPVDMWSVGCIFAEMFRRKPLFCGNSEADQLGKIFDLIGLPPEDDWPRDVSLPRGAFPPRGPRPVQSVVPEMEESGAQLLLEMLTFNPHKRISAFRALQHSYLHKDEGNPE
# Sequence of human cyclin D1-CDK4 (P24385 whole entry partner): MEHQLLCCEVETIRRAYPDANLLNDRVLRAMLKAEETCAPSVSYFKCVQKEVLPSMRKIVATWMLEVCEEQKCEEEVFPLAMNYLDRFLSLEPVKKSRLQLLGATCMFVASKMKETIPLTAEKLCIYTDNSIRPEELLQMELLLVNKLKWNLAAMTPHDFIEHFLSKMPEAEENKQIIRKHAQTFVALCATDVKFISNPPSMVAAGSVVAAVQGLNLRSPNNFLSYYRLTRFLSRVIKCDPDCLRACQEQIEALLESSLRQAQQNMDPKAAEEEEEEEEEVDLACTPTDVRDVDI
# Procedure: To determine inhibition of Cdk4, Cdk2 and Cdk1 activity, kinase assays were conducted using FlashPlateTM assays (NENTM-Life Science Products). […] W. Harper at the Baylor College of Medicine, Houston, Tex. Proteins were co-expressed in High FiveTM insect cells and the complex was purified on glutathione Sepharose resin (Pharmacia, Piscataway, N.J.) as previously described (Harper, J. W. et al. Cell 1993, 75, 805-816). A 6×-Histidine tagged […]) was used as the substrate for the cycD1-CDK4, cycB-CDK1 and the cycE-CDK2 assays (the expression plasmid was provided by Dr. Veronica Sullivan, Department of Molecular Virology, Roche Research Centre, Welwyn Garden City, United Kingdom). The Rb protein is a natural substrate for phosphorylation by CDK4, CDK2 and CDK1 (see Herwig and Strauss Eur. J. Biochem. Vol. 246 (1997) pp. 581-601 and the references cited therein). Alternatively, inhibition activity may be measured using Ki. Using the protein constructs described above in Example 19A above, CDK1, CDK2, and CDK4 HTRF assays were set up. These were done in 96-well format and read in 384-well plate format. The assays were run at 3× their respective Kms for ATP. In the CDK4 assay, test compounds were diluted to 3× their final concentrations in 25 mM Hepes, pH 7.0, 6.25 mM MgCl2, 1.5 mM DTT, 135 μM ATP. The DMSO concentration was no greater than 4.76%. Twenty microliters were added to the wells of a 96-well plate. The kinase reaction was initiated by the addition of 40 μl/well of a solution containing 0.185 μM Rb and 2.25 μg/ml CDK4 in 25 mM Hepes, pH 7.0, 6.25 mM MgCl2, 0.003% Tween-20, 0.3 mg/ml BSA, 1.5 mM DTT. Blank wells without CDK4 were included. The plates were incubated at 37° C. for 30 minutes with shaking. The kinase reaction was terminated by the addition of 15 μl/well of 1.6 uM anti-phospho-Rb ([…]) antibody (Cell Signaling Inc.) in 25 mM Hepes, pH 7.0, 24 mM EDTA, 0.2 mg/ml BSA. After 30 minutes at 37° C., 15 μl/well of 3 nM Lance-Eu-W1024 labeled anti-rabbit IgG and 60 nM Allophycocyanin conjugated anti-His6 (PerkinElmer Life Sciences) in 25 mM Hepes, pH 7.0, 0.5 mg/ml BSA were added. Following a one hour incubation at 37 deg C., 35 μl of each well, in duplicate, were transferred to 384-well black plates. The plates were read using either ViewLux or Victor V readers (PerkinElmer Life Sciences) using an excitation wavelength of 340 nm and dual emission wavelengths of 615 nm and 665 nm. IC50 values (the concentration of test compounds reducing the assay control fluorescence read-out by 50%) were first calculated from net readings at 665 nm, normalized for europium readings at 615 nm. For ATP competitive inhibitors, the Ki values were calculated according to the following equation: […]
# human cyclin E-CDK2 = human cyclin E-CDK2 (Homo sapiens, UniProt P24941); experiment: CDK2 HTRF kinase assay (Ki measurement); type: biochemical
# Procedure: as §1, §2
# Twenty microliters were added to the wells of a 96-well plate. […] Blank wells without CDK4 were included. The plates were incubated at 37° C. for 30 minutes with shaking. […] After 30 minutes at 37° C., 15 μl/well of 3 nM Lance-Eu-W1024 labeled anti-rabbit IgG and 60 nM Allophycocyanin conjugated anti-His6 (PerkinElmer Life Sciences) in 25 mM Hepes, pH 7.0, 0.5 mg/ml BSA were added. Following a one hour incubation at 37 deg C., 35 μl of each well, in duplicate, were transferred to 384-well black plates. The plates were read using either ViewLux or Victor V readers (PerkinElmer Life Sciences) using an excitation wavelength of 340 nm and dual emission wavelengths of 615 nm and 665 nm.
# as §3
# The compound and enzyme buffers for both assays contained 10 mM MgCl2.
# [1] = test system: HCT116 colorectal carcinoma cell line; experiment: Tetrazolium dye proliferation assay (MTT assay); type: cell-based; conditions: Homo sapiens, HCT-116, HCT116 cells
# Procedure: Proliferation was evaluated by the tetrazolium dye assay according to the procedure of Denizot and Lang (Denizot, F. and Lang, R. J Immunol Methods 1986, 89, 271-277). The cell line used was HCT116, a colorectal carcinoma cell line obtained from the American Type Cell Culture Collection (ATCC; Rockville, Md.). The cells were grown in McCoy's 5A medium supplemented with 10% FCS and L-glutamine.
# Cells were plated at the appropriate seeding density to give logarithmic growth over the course of the assay in a 96-well tissue culture plate. Plates were incubated overnight at 37° C. in a humidified incubator with 5% CO2. The next day, test compounds were serially diluted to four times the final concentration in the appropriate medium containing 1.2% DMSO. One-fourth final volume of each dilution was added in duplicate to the plates containing cells. The same volume of 1.2% DMSO in medium was added to a row of “control wells” such that the final concentration of DMSO in each well was 0.3%. Wells to which no cells were added served as the “blank.” Wells to which no inhibitor was added served as “no inhibitor control.” The plates were) returned to the incubator, and at set time points (determined by their growth curves) plates were analyzed as described below.
# 3-(4,5-dimethylthiazole-2-yl)-2,5-diphenyl-2H-tetrazolium bromide (thiazolyl blue; MTT; Sigma) was added to each well to yield a final concentration of 1 mg/ml. Plates were returned to the incubator for 2.5-3 hours at 37° C. The MTT-containing medium was removed and the resulting formazan metabolite was solubilized in 100% ethanol with shaking for 15 minutes at room temperature. Absorbance readings were taken in a microtiter plate reader (Dynatech and Molecular Devices plate readers were used interchangeably) at a wavelength of 570 nm with a 650 nm reference. Percent inhibition (% INH) is calculated by subtracting the absorbance of the blank well from all wells, then subtracting the ratio of the average absorbance of each test duplicate (SAVE) by the average of the controls (CAVE) from 1.00. The final number is then multiplied by 100 (% INH=(1.00−SAVE/CAVE)×100). The concentration at which 50% inhibition of cell proliferation is obtained (the IC50) is determined from the linear regression of a plot of the logarithm of the concentration versus percent inhibition.
# [2] = HTRF assay, ATP at 3x Km, read-out: Ki CDK2
# Sequence of human cyclin B-CDK1 (P06493 whole entry): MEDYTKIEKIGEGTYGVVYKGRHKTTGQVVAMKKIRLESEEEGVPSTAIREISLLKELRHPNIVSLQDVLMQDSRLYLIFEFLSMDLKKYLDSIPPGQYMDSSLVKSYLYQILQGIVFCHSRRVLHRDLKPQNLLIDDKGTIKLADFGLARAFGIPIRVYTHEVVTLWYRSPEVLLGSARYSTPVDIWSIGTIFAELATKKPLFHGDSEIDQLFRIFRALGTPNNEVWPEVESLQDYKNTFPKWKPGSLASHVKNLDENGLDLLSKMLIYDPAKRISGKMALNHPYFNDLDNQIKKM
# Sequence of human cyclin B-CDK1 (P14635 whole entry partner): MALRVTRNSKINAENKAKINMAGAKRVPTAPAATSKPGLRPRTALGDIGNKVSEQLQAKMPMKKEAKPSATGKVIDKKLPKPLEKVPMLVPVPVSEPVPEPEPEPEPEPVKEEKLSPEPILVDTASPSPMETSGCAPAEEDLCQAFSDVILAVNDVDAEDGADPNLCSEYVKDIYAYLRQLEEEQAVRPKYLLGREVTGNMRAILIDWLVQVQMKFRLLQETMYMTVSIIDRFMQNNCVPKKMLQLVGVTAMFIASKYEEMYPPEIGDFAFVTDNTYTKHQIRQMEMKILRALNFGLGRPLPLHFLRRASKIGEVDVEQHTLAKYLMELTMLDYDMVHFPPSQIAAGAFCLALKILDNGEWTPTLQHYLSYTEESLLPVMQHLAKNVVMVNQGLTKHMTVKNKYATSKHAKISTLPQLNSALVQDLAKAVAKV
SMILES,Ki (human cyclin B-CDK1) [nM],Ki (human cyclin D1-CDK4) [nM],Ki (human cyclin E-CDK2) [nM],IC50 [1] [nM],Ki (human cyclin E-CDK2; [2]) [nM]
"CS(=O)(=O)N1CCC(Nc2ncc(C(=S)c3c(Cl)ccc(F)c3F)c(N)n2)CC1 [Example 13, [4-Amino-2-(1-methanesulfonyl-piperidin-4-ylamino)-pyrimidin-5-yl]-(6-chloro-2,3-difluoro-phenyl)-methanethione]",3,3,,176,1
"COc1ccc(F)c(F)c1C(=S)c1cnc(Nc2ccc(S(N)(=O)=O)cc2)nc1N [Example 14, 4-[4-Amino-5-(2,3-difluoro-6-methoxy-thiobenzoyl)-pyrimidin-2-ylamino]-benzenesulfonamide]",3,3,,32,1

# Further lines, results first:
Ki (human cyclin B-CDK1) [nM],Ki (human cyclin D1-CDK4) [nM],Ki (human cyclin E-CDK2) [nM],IC50 [1] [nM],Ki (human cyclin E-CDK2; [2]) [nM],SMILES
< 10,1.3,1.3,81,,"COc1ccc(F)cc1C(=S)c1cnc(NC2CCN(S(C)(=O)=O)CC2)nc1N [Example 5, [4-Amino-2-(1-methanesulfonyl-piperidin-4-ylamino)-pyrimidin-5-yl]-(5-fluoro-2-methoxy-phenyl)-methanethione]"
3,0.26,,13,0.1,"CS(=O)(=O)N1CCC(Nc2ncc(C(=S)c3c(F)c(F)cc4ccoc34)c(N)n2)CC1 [Example 6, [4-Amino-2-(1-methanesulfonyl-piperidin-4-ylamino)-pyrimidin-5-yl]-(5,6-difluoro-benzofuran-7-yl)-methanethione]"
3,1,1,171,,"CS(=O)(=O)N1CCC(Nc2ncc(C(=S)c3c(F)cccc3F)c(N)n2)CC1 [Example 15, [4-Amino-2-(1-methanesulfonyl-piperidin-4-ylamino)-pyrimidin-5-yl]-(2,6-difluoro-phenyl)-methanethione]"
